Source: article PMC5218480 (PLoS ONE, 2017)

Tested on: MV-4-11 cells
Experiment: Gene expression microarray analysis (Affymetrix PrimeView) and GSEA
Type: cell-based, human
Parameters: RFU PODN (11730768_x_at) / Fold change /veh PODN (11730768_x_at) / RFU LINC00158 (11744669_a_at) / Fold change /veh LINC00158 (11744669_a_at) / RFU DUSP10 (11751237_a_at) / Fold change /veh DUSP10 (11751237_a_at) / RFU ID3 (11757404_x_at) / Fold change /veh ID3 (11757404_x_at) / RFU PLEKHG5 (11737974_s_at) / Fold change /veh PLEKHG5 (11737974_s_at) / RFU LRRC4B (11730491_at) / Fold change /veh LRRC4B (11730491_at) / RFU GIMAP4 (11747438_a_at) / Fold change /veh GIMAP4 (11747438_a_at) / RFU KRT8 (11758183_x_at) / Fold change /veh KRT8 (11758183_x_at) / RFU CNN1 (11734310_a_at) / Fold change /veh CNN1 (11734310_a_at) / RFU VPS37D (11726825_at) / Fold change /veh VPS37D (11726825_at) / RFU C10orf10 (11716522_x_at) / Fold change /veh C10orf10 (11716522_x_at) / RFU KIR2DL2 /// KIR2DL4 /// KIR2DL5A /// KIR2DL5B /// KIR2DS1 /// KIR2DS2 /// KIR2DS3 /// KIR2DS4 /// KIR3DL3 /// KIR3DL3 /// KIR3DS1 (11738374_at) / Fold change /veh KIR2DL2 /// KIR2DL4 /// KIR2DL5A /// KIR2DL5B /// KIR2DS1 /// KIR2DS2 /// KIR2DS3 /// KIR2DS4 /// KIR3DL3 /// KIR3DL3 /// KIR3DS1 (11738374_at) / RFU C1QL1 (11718748_at) / Fold change /veh C1QL1 (11718748_at) / RFU TMPRSS4 (11747572_a_at) / Fold change /veh TMPRSS4 (11747572_a_at) / RFU HAMP (11756126_x_at) / Fold change /veh HAMP (11756126_x_at) / RFU RNFT2 (11725882_a_at) / Fold change /veh RNFT2 (11725882_a_at) / RFU NR4A2 (11747474_a_at) / Fold change /veh NR4A2 (11747474_a_at) / RFU ABCC12 (11746883_a_at) / Fold change /veh ABCC12 (11746883_a_at) / RFU TMEM136 (11760407_x_at) / Fold change /veh TMEM136 (11760407_x_at) / RFU CLDN22 /// WWC2 (11732394_at) / Fold change /veh CLDN22 /// WWC2 (11732394_at) / RFU HLA-DPB1 (11760878_x_at) / Fold change /veh HLA-DPB1 (11760878_x_at) / RFU SPINT1 (11716480_a_at) / Fold change /veh SPINT1 (11716480_a_at) / RFU GAP43 (11754022_s_at) / Fold change /veh GAP43 (11754022_s_at) / RFU A4GNT (11735810_at) / Fold change /veh A4GNT (11735810_at) / RFU PRB3 (11715151_x_at) / Fold change /veh PRB3 (11715151_x_at) / RFU TUBB4B (11761932_at) / Fold change /veh TUBB4B (11761932_at) / RFU CAPN14 (11732068_a_at) / Fold change /veh CAPN14 (11732068_a_at) / RFU TMCC2 (11721928_a_at) / Fold change /veh TMCC2 (11721928_a_at) / RFU IRGQ (11745062_a_at) / Fold change /veh IRGQ (11745062_a_at) / RFU FAM174B (11720279_a_at) / Fold change /veh FAM174B (11720279_a_at) / RFU TMPRSS4 (11748680_a_at) / Fold change /veh TMPRSS4 (11748680_a_at) / RFU FAM212B (11763350_a_at) / Fold change /veh FAM212B (11763350_a_at) / RFU PLEKHG5 (11743358_a_at) / Fold change /veh PLEKHG5 (11743358_a_at) / RFU ZSCAN30 (11745921_a_at) / Fold change /veh ZSCAN30 (11745921_a_at) / RFU CMKLR1 (11741424_a_at) / Fold change /veh CMKLR1 (11741424_a_at) / RFU LOC101060620 /// MAPK8IP1 (11723275_at) / Fold change /veh LOC101060620 /// MAPK8IP1 (11723275_at) / RFU SPTSSB (11747773_x_at) / Fold change /veh SPTSSB (11747773_x_at) / RFU PRSS12 (11739890_at) / Fold change /veh PRSS12 (11739890_at) / RFU BIN1 (11741810_x_at) / Fold change /veh BIN1 (11741810_x_at) / RFU WNT11 (11732464_a_at) / Fold change /veh WNT11 (11732464_a_at) / RFU C10orf10 (11716521_a_at) / Fold change /veh C10orf10 (11716521_a_at) / RFU C5orf56 (11738089_at) / Fold change /veh C5orf56 (11738089_at) / RFU CYB561 (11721691_x_at) / Fold change /veh CYB561 (11721691_x_at) / RFU ANKRD19P (11752326_a_at) / Fold change /veh ANKRD19P (11752326_a_at) / RFU OR2T12 /// OR2T33 /// OR2T8 (11738714_s_at) / Fold change /veh OR2T12 /// OR2T33 /// OR2T8 (11738714_s_at) / RFU VCAN (11748164_a_at) / Fold change /veh VCAN (11748164_a_at) / RFU JSRP1 (11732532_at) / Fold change /veh JSRP1 (11732532_at) / RFU KRTAP10-11 (11738290_x_at) / Fold change /veh KRTAP10-11 (11738290_x_at) / RFU MYO3A (11730013_a_at) / Fold change /veh MYO3A (11730013_a_at) / RFU EBF3 (11725865_a_at) / Fold change /veh EBF3 (11725865_a_at) / RFU CAMK2N1 (11719241_x_at) / Fold change /veh CAMK2N1 (11719241_x_at) / RFU C5orf56 (11738088_a_at) / Fold change /veh C5orf56 (11738088_a_at) / RFU OLFML3 (11715873_a_at) / Fold change /veh OLFML3 (11715873_a_at) / RFU LOC100653217 /// NTM (11731650_a_at) / Fold change /veh LOC100653217 /// NTM (11731650_a_at) / RFU MAPK11 (11762145_a_at) / Fold change /veh MAPK11 (11762145_a_at) / RFU FIZ1 (11724087_x_at) / Fold change /veh FIZ1 (11724087_x_at) / RFU OASL (11726364_x_at) / Fold change /veh OASL (11726364_x_at) / RFU SOX15 (11748057_x_at) / Fold change /veh SOX15 (11748057_x_at) / RFU CD79A (11719716_a_at) / Fold change /veh CD79A (11719716_a_at) / RFU HIST1H1D (11736915_at) / Fold change /veh HIST1H1D (11736915_at) / RFU CASKIN2 (11723855_a_at) / Fold change /veh CASKIN2 (11723855_a_at) / RFU LOC730098 (11760151_x_at) / Fold change /veh LOC730098 (11760151_x_at) / RFU OR4N2 (11742367_at) / Fold change /veh OR4N2 (11742367_at) / RFU PRRT2 (11749266_a_at) / Fold change /veh PRRT2 (11749266_a_at) / RFU SNX32 (11753110_a_at) / Fold change /veh SNX32 (11753110_a_at) / RFU CDHR5 (11726645_a_at) / Fold change /veh CDHR5 (11726645_a_at) / RFU RCAN1 (11760418_a_at) / Fold change /veh RCAN1 (11760418_a_at) / RFU FAM167A (11723789_a_at) / Fold change /veh FAM167A (11723789_a_at) / RFU FAM26E (11764081_at) / Fold change /veh FAM26E (11764081_at) / RFU ISYNA1 (11749810_s_at) / Fold change /veh ISYNA1 (11749810_s_at) / RFU ACY1 (11761880_at) / Fold change /veh ACY1 (11761880_at) / RFU 11764098_at / Fold change /veh 11764098_at / RFU SAMD14 (11745864_x_at) / Fold change /veh SAMD14 (11745864_x_at) / RFU NPB (11741838_a_at) / Fold change /veh NPB (11741838_a_at) / RFU TMPRSS6 (11731388_a_at) / Fold change /veh TMPRSS6 (11731388_a_at) / RFU KRTAP10-2 (11738614_at) / Fold change /veh KRTAP10-2 (11738614_at) / RFU ARHGAP8 /// PRR5-ARHGAP8 (11727945_x_at) / Fold change /veh ARHGAP8 /// PRR5-ARHGAP8 (11727945_x_at) / RFU KRTAP5-7 /// NADSYN1 (11734609_at) / Fold change /veh KRTAP5-7 /// NADSYN1 (11734609_at) / RFU RASL12 (11751679_a_at) / Fold change /veh RASL12 (11751679_a_at) / RFU CDKN2B (11736163_a_at) / Fold change /veh CDKN2B (11736163_a_at) / RFU PRF1 (11729649_at) / Fold change /veh PRF1 (11729649_at) / RFU, ZNF638 /// ZNF638-IT1 / Fold change vs veh, ZNF638 /// ZNF638-IT1 / RFU, PANK3 / Fold change vs veh, PANK3 / RFU, SH3YL1 / Fold change vs veh, SH3YL1 / RFU, ZEB2 / Fold change vs veh, ZEB2 / RFU, NRIP1 / Fold change vs veh, NRIP1 / RFU, PTTG1IP / Fold change vs veh, PTTG1IP / RFU, CAPN2 / Fold change vs veh, CAPN2 / RFU, MED14 / Fold change vs veh, MED14 / RFU, SNORA58 / Fold change vs veh, SNORA58 / RFU, C1orf63 / Fold change vs veh, C1orf63 / RFU, LRRFIP1 / Fold change vs veh, LRRFIP1 / RFU, NDUFAF7 / Fold change vs veh, NDUFAF7 / RFU, SLC12A2 / Fold change vs veh, SLC12A2 / RFU, IBTK / Fold change vs veh, IBTK / RFU, ESF1 / Fold change vs veh, ESF1 / Fold change vs veh, TMEM50B / RFU, TAOK1 / Fold change vs veh, TAOK1 / RFU, ACBD3 / Fold change vs veh, ACBD3 / RFU, TMA16 / Fold change vs veh, TMA16 / RFU, RWDD3 / Fold change vs veh, RWDD3 / RFU, BCAT1 / Fold change vs veh, BCAT1 / RFU, EDEM3 / Fold change vs veh, EDEM3 / RFU, TMEM33 / Fold change vs veh, TMEM33 / RFU, WDR75 / Fold change vs veh, WDR75 / RFU, AHCTF1 / Fold change vs veh, AHCTF1 / RFU, TFRC / Fold change vs veh, TFRC / RFU, ZDHHC17 / Fold change vs veh, ZDHHC17 / RFU, NOM1 / Fold change vs veh, NOM1 / RFU, ARL8B / Fold change vs veh, ARL8B / RFU, ZBTB11 / Fold change vs veh, ZBTB11 / RFU, TAMM41 / Fold change vs veh, TAMM41 / RFU, KIAA1704 /// LOC100996395 / Fold change vs veh, KIAA1704 /// LOC100996395 / RFU, ING1 / Fold change vs veh, ING1 / RFU, TRMT61B / Fold change vs veh, TRMT61B / RFU, FUBP3 / Fold change vs veh, FUBP3 / RFU, TP53 / Fold change vs veh, TP53 / RFU, TNKS2 / Fold change vs veh, TNKS2 / RFU, ZFP14 / Fold change vs veh, ZFP14 / RFU, ACTR2 / Fold change vs veh, ACTR2 / RFU, PPP3R1 / Fold change vs veh, PPP3R1 / RFU, PIK3R1 / Fold change vs veh, PIK3R1 / RFU, HNRNPA1 / Fold change vs veh, HNRNPA1 / RFU, RNF170 / Fold change vs veh, RNF170 / RFU, ZNF28 / Fold change vs veh, ZNF28 / RFU, RNGTT / Fold change vs veh, RNGTT / RFU, OGT / Fold change vs veh, OGT / RFU, BRD1 / Fold change vs veh, BRD1 / RFU, MARS / Fold change vs veh, MARS / RFU, ZNF655 / Fold change vs veh, ZNF655 / RFU, FAHD1 / Fold change vs veh, FAHD1 / RFU, BDP1 / Fold change vs veh, BDP1 / RFU, LRRCC1 / Fold change vs veh, LRRCC1 / RFU, ARID1A / Fold change vs veh, ARID1A / RFU, ZNF146 / Fold change vs veh, ZNF146 / RFU, ZNF330 / Fold change vs veh, ZNF330 / RFU, GPN3 / Fold change vs veh, GPN3 / RFU, C9orf123 / Fold change vs veh, C9orf123 / RFU, N4BP2L2 / Fold change vs veh, N4BP2L2 / RFU, ARFIP1 / Fold change vs veh, ARFIP1 / RFU, FAM179B / Fold change vs veh, FAM179B / RFU, BCL10 / Fold change vs veh, BCL10 / RFU, UHRF1BP1L / Fold change vs veh, UHRF1BP1L / RFU, BET1 / Fold change vs veh, BET1 / RFU, CNOT2 / Fold change vs veh, CNOT2 / RFU, ZNF268 / Fold change vs veh, ZNF268 / Fold change vs veh, ZNF507 / RFU, DGCR2 / Fold change vs veh, DGCR2 / RFU, WDSUB1 / Fold change vs veh, WDSUB1 / Fold change vs veh, HSP90B1 /// MIR3652 / RFU, ADSS / Fold change vs veh, ADSS / RFU, GK / Fold change vs veh, GK / RFU, ZNF148 / Fold change vs veh, ZNF148 / RFU, TAF9 / Fold change vs veh, TAF9 / RFU, SLC1A5 / Fold change vs veh, SLC1A5 / RFU, SLMO2 / Fold change vs veh, SLMO2 / RFU, ABCC4 / Fold change vs veh, ABCC4 / RFU, LOC101060439 /// RAP1B / Fold change vs veh, LOC101060439 /// RAP1B / RFU, RFX7 / Fold change vs veh, RFX7 / RFU, GTPBP10 / Fold change vs veh, GTPBP10 / RFU, CNEP1R1 / Fold change vs veh, CNEP1R1 / RFU, BIVM-ERCC5 /// ERCC5 / Fold change vs veh, BIVM-ERCC5 /// ERCC5 / RFU, ILF3 / Fold change vs veh, ILF3 / RFU 11762660_at / Fold change /veh 11762660_at / RFU VCAN (11757783_s_at) / Fold change /veh VCAN (11757783_s_at) / RFU DDX43 (11728927_at) / Fold change /veh DDX43 (11728927_at) / RFU KRT8 (11758188_x_at) / Fold change /veh KRT8 (11758188_x_at) / RFU NKD1 (11759106_at) / Fold change /veh NKD1 (11759106_at) / RFU SRD5A1 (11742802_a_at) / Fold change /veh SRD5A1 (11742802_a_at) / RFU TPSAB1 /// TPSB2 (11721975_s_at) / Fold change /veh TPSAB1 /// TPSB2 (11721975_s_at) / RFU GSTM3 (11746129_a_at) / Fold change /veh GSTM3 (11746129_a_at) / RFU IL23R (11737362_x_at) / Fold change /veh IL23R (11737362_x_at) / RFU TMEM51 (11727254_a_at) / Fold change /veh TMEM51 (11727254_a_at) / RFU PIWIL2 (11732686_x_at) / Fold change /veh PIWIL2 (11732686_x_at) / RFU ORM1 (11744905_x_at) / Fold change /veh ORM1 (11744905_x_at) / RFU CCDC152 (11743942_at) / Fold change /veh CCDC152 (11743942_at) / RFU ECM1 (11717891_a_at) / Fold change /veh ECM1 (11717891_a_at) / RFU IL23R (11748794_a_at) / Fold change /veh IL23R (11748794_a_at) / RFU TNFAIP8L3 (11732012_x_at) / Fold change /veh TNFAIP8L3 (11732012_x_at) / RFU MBOAT4 (11741988_at) / Fold change /veh MBOAT4 (11741988_at) / RFU 11764193_at / Fold change /veh 11764193_at / RFU TMEM53 (11763286_at) / Fold change /veh TMEM53 (11763286_at) / RFU MAGEB2 (11727129_at) / Fold change /veh MAGEB2 (11727129_at) / RFU TMEM200A (11744735_a_at) / Fold change /veh TMEM200A (11744735_a_at) / RFU CCDC152 (11751479_a_at) / Fold change /veh CCDC152 (11751479_a_at) / RFU FAM211A (11726209_a_at) / Fold change /veh FAM211A (11726209_a_at) / RFU RGS16 (11746705_a_at) / Fold change /veh RGS16 (11746705_a_at) / RFU VCAN (11755009_s_at) / Fold change /veh VCAN (11755009_s_at) / RFU RHOB (11743442_s_at) / Fold change /veh RHOB (11743442_s_at) / RFU RGS16 (11720943_a_at) / Fold change /veh RGS16 (11720943_a_at) / RFU RGS16 (11720944_at) / Fold change /veh RGS16 (11720944_at) / RFU, VPS4B / Fold change vs veh, VPS4B / RFU, CREB1 / Fold change vs veh, CREB1 / RFU, DNAJC13 / Fold change vs veh, DNAJC13 / RFU, GNAQ / Fold change vs veh, GNAQ / RFU, CDK5R1 / Fold change vs veh, CDK5R1 / RFU, ZRANB3 / Fold change vs veh, ZRANB3 / RFU, CUL4A / Fold change vs veh, CUL4A / RFU, CCNY / Fold change vs veh, CCNY / RFU, UFL1 / Fold change vs veh, UFL1 / RFU, COG3 / Fold change vs veh, COG3 / RFU, DIAPH2 / Fold change vs veh, DIAPH2 / RFU, SKA2 / Fold change vs veh, SKA2 / RFU, AFF3 / Fold change vs veh, AFF3 / RFU, LMF1 / Fold change vs veh, LMF1 / RFU, IPO11 / Fold change vs veh, IPO11 / RFU, DFFB / Fold change vs veh, DFFB / RFU, FOXP1 / Fold change vs veh, FOXP1 / RFU, CARD8 / Fold change vs veh, CARD8 / RFU, STRN3 / Fold change vs veh, STRN3 / RFU, ADK / Fold change vs veh, ADK / RFU, RASSF2 / Fold change vs veh, RASSF2 / RFU, WIPF1 / Fold change vs veh, WIPF1 / RFU, LARP1B / Fold change vs veh, LARP1B / RFU, RASA1 / Fold change vs veh, RASA1 / RFU, RB1 / Fold change vs veh, RB1 / RFU, PPFIA1 / Fold change vs veh, PPFIA1 / RFU, MAT2A / Fold change vs veh, MAT2A / RFU, CCT5 / Fold change vs veh, CCT5 / RFU, WDR92 / Fold change vs veh, WDR92 / RFU, CUX1 / Fold change vs veh, CUX1 / RFU, TTC7A / Fold change vs veh, TTC7A / RFU, TMEM135 / Fold change vs veh, TMEM135 / RFU, DEPTOR / Fold change vs veh, DEPTOR / RFU, CPM / Fold change vs veh, CPM / RFU, DNAJB6 / Fold change vs veh, DNAJB6 / RFU, CACNA2D3 / Fold change vs veh, CACNA2D3 / RFU, DTX4 / Fold change vs veh, DTX4 / RFU, TFCP2 / Fold change vs veh, TFCP2 / RFU, GMCL1 /// GMCL1P1 / Fold change vs veh, GMCL1 /// GMCL1P1 / RFU, AEBP2 / Fold change vs veh, AEBP2 / RFU, SNHG1 /// SNORD22 /// SNORD25 /// SNORD26 /// SNORD27 /// SNORD28 /// SNORD29 /// SNORD31 / Fold change vs veh, SNHG1 /// SNORD22 /// SNORD25 /// SNORD26 /// SNORD27 /// SNORD28 /// SNORD29 /// SNORD31 / Fold change (Aza/veh), C12orf56 (ProbeSet 11735607_a_at) / Fold change (ACY-1035/veh), C12orf56 (ProbeSet 11735607_a_at) / Fold change (Aza/veh), FGFR1OP (ProbeSet 11751329_s_at) / Fold change (ACY-1035/veh), FGFR1OP (ProbeSet 11751329_s_at) / Fold change (Aza/veh), VPS36 (ProbeSet 11739960_a_at) / Fold change (ACY-1035/veh), VPS36 (ProbeSet 11739960_a_at) / RFU SYPL1 (11715823_x_at) / Fold change /veh SYPL1 (11715823_x_at) / RFU IGFBP7 (11715501_s_at) / Fold change /veh IGFBP7 (11715501_s_at) / RFU REEP3 (11722064_at) / Fold change /veh REEP3 (11722064_at) / RFU IGLL1 (11728026_x_at) / Fold change /veh IGLL1 (11728026_x_at): dose or concentration left out as unconfirmed
Conditions: MV-4-11 cells, 48 hours

Nc1ncn([C@@H]2O[C@H](CO)[C@@H](O)[C@H]2O)c(=O)n1 [azacitidine]
Fold change /veh IL23R (11737362_x_at): 1.70
